Test results as given in article PMC6099102, “Effect of the Nature of Donor Atoms on the Thermodynamic, Kinetic and Relaxation Properties of Mn(II) Complexes Formed With Some Trisubstituted 12-Membered Macrocyclic Ligands” (Frontiers in Chemistry, 2018).
“And” between values parts separate entries of the source, which are not always exact repeats. Equal entries are not always repeated.

Key:
[1] = Dissociation kinetics of the Mn(II) complexes (acid catalyzed dissociation, metal or ligand exchange reactions); assay type: physicochemical; details: I = 0.15 M NaCl, 25 °C
Procedure: The dissociation reactions were followed by UV-vis spectrophotometry at 269 nm for the pyclen derivatives or at 300 nm for other complexes in the pH range of 3.6–5.0 for the exchange reactions with Cu(II) and up to pH = 6.0 when Zn(II) was used as a ligand scavenger. The acid catalyzed dissociation reactions were performed in the HCl concentration range of 0.05–1.0 M. The concentration of the complexes in the samples was 0.25 mM, while the concentration of the exchanging metal ion in the metal initiated transchelation reactions was 10–40 times higher to ensure pseudo-first-order conditions. Relaxometry was used to follow the transchelation reactions of [Mn(DOTAM)]^2+, [Mn(DO3AM^H)]^2+, [Mn(DO3A)]^−, [Mn(PCTA)]^− and [Mn(ODO3A)]^− with Cu(II)/Zn(II) ions in the pH range of 3.6–5.5 (Figures S17–S19 in Supplementary Material). The concentration of the complexes in these samples was set to 1.0–2.0 mM to achieve relatively large change during the dissociation reaction. […] The temperature was maintained at 25 °C and the ionic strength of the solutions was kept constant at 0.15 M with NaCl. N,N′-dimethyl- (DMP) and N-methyl-piperazine (NMP) buffers (log K2H = 4.18 and 4.90 at 25 °C and I = 0.15 M NaCl, respectively) were used at 0.05 M concentration to keep the pH constant. The pseudo-first-order rate constants (kobs) were calculated by fitting the absorbance or relaxivity-time data pairs to Equation (1) (1) Xt=(X0-Xe)e^-kobst+Xe where Xt, X0, and Xe are the absorbance or relaxivity at time t, at the start and at equilibrium, respectively. The calculations were performed with the computer program Micromath Scientist, version 2.0 (Salt Lake City, UT, USA) using a standard least-squares procedure.
The kinetic inertness of the Mn(II) complexes is the other important parameter for the complexes considered for use in vivo. The inertness of Mn(II) complexes formed with trisubstituted 12-memberd macrocyclic ligands were characterized either by studying the rates of acid catalyzed dissociation or by studying transmetallation reactions occurring between the complexes and a suitable exchanging metal ion such as Zn(II) or Cu(II). The demetallation reactions of labile complexes were performed at high pH by following the ligand exchange reactions with trans-CDTA and DTPA ligands. The demetallation reactions were studied in the presence of a large Cu(II)/Zn(II)/trans-CDTA/DTPA excess or by using high acid concentration in order to ensure pseudo-first-order conditions (Equation 6). Scheme 1 outlines all the possible dissociation pathways for the Mn(II) complexes. […] The reactions of the released Mn(II) and L ligand with the exchanging L' and M' reactants are assumed to be very rapid.
The rate of dissociation can be expressed by the Equation (6), where kobs is the pseudo-first-order rate constant and [Mn(L)]t is the total concentration of the species containing [Mn(L)] complex. The [Mn(L)]t will differ slightly depending on the experimental conditions (in the presence of a large metal or ligand excess). As [Mn(L)]t = [Mn(L)] + [Mn(HL)] + [Mn(H2L)] + [Mn(L)M] + [Mn(L)(L')] + [Mn(HL)(L')] for reactions performed at high pH (in the pH range of 3.0–5.0 often applied in Cu(II) exchange reactions) will involve fewer protonated species while the acid catalyzed dissociation reactions run in the strongly acidic media (0.1–1.0 M acid concentration range) predominantly contain protonated species ([Mn(L)]t = [Mn(L)]+[Mn(HL)]+[Mn(H2L)]). (6) -d[MnL]t/dt=kobs[MnL]t
By taking into account the various complex species and the possible reaction pathways as well as the protonation and stability constants of the reactive intermediates, the following equation (Equation 7) can be derived to describe the rates of dissociation. […]

[2] = Protonation constants of the ligands by pH-potentiometric titration; assay type: physicochemical; details: I = 0.15 M NaCl, 25 °C; for Σ log K2H: log K1H + log K2H
Procedure: The concentration of the ligand solutions was determined by pH-potentiometric titration in the presence and absence of an excess (5–10 fold) of MnCl2. For determining the protonation constants of the investigated ligands, pH-potentiometric titrations were made by means of 0.2 M standardized NaOH in 2 and 3 mM ligand solutions in the pH-range of 1.75–11.85. All equilibrium measurements were performed at a constant 0.15 M NaCl ionic strength at 25 °C. The protonation and the stability constants of the Mn(II) complexes were determined by pH-potentiometric titrations (DOTP, DO3A, PCTA, ODO3A, DO3P) while owing to the slow formation rates of Mn(II) complexes formed with amide type ligands, the stability constants of DOTAM, DOTMA, DO3AM^H, PC3AM^H, PC3AM^Gly, PC3AM^Pip complexes were determined by out-of-cell pH-potentiomertry in combination with ^1H relaxometry. The metal-to-ligand concentration ratio in the solutions was 1:1. For the calculation of protonation constants of the ligands and the log KMnL and log KMnLHi values of the complexes, mL–pH data pairs (50–180), obtained in the pH range of 1.75–11.85 or r1obs-pH data pairs (10–15 batch samples) obtained in the pH range of 2–4.5 were used (the samples were equilibrated for 4–7 days). The equilibrium constants characterizing the deprotonation that occurs at basic pH were determined from the data obtained via direct pH-potentiometric titrations performed on the pre-formed complexes.
The pH-potentiometric titrations were carried out with a Methrohm 888 Titrando titration workstation using a Metrohm-6.0233.100 combined electrode. The samples (6.00 mL) were thermostated at 25 °C. The samples were stirred and kept under inert gas (N2) to avoid the effect of CO2. KH-phthalate (pH = 4.005) and borax (pH = 9.177) buffers were used for the pH-calibration. The method proposed by Irving et al. was used for the calculation of H^+ concentrations from the measured pH values (Irving et al., [1967]). A 0.01 M HCl (I = 0.15 M set with NaCl) solution was titrated with standardized NaOH solution of known concentration (approx. 0.2 M). The correction factor obtained as difference of calculated pH and measured pH values was used to calculate the [H^+] in the samples. The ionic product of water was determined from the same titrations (HCl/NaOH) from the data collected in the pH range of 11.20–11.85.
The protonation and complexation equilibria of the macrocyclic ligands and their Mn(II) complexes have been studied by pH-potentiometric and relaxometric methods in the presence of 0.15 M NaCl whose ionic strength mimics the physiological conditions. The protonation constants of the ligands were evaluated by fitting the pH-V(mL) base data pairs collected in the pH-potentiometric titrations. The protonation equilibria of the ligands can be described by Equation (2). (a comparison of previously published log K^H data available in the Supplementary Material) together with the constants of H4DOTA, cis- and trans-H2DO2A derivatives given for comparison. (2) KiH=[HiL]/[Hi-1L][H^+],i=1,2,…

| SMILES | log K1H ([2]; ligand protonation constant) | log K2H ([2]; ligand protonation constant) | log K3H ([2]; ligand protonation constant) | log K4H ([2]; ligand protonation constant) | Σ log K2H [2] | log K5H ([2]; ligand protonation constant) | log K6H ([2]; ligand protonation constant) | t1/2 0.1 M HCl ([1]; half-life of dissociation calculated for 0.1 M H+) [min] | k1 (proton-assisted dissociation) ([1]; stopped-flow in highly acidic condition, proton-assisted dissociation of the [Mn(HL)] complex) | k1 (proton-assisted dissociation) [1] | k1 (proton-assisted dissociation) ([1]; ligand exchange reaction with trans-CDTA^4− or DTPA^5− in the pH range 8-9.5) [M⁻¹ s⁻¹] |
| --- | --- | --- | --- | --- | --- | --- | --- | --- | --- | --- | --- |
| NC(=O)CN1CCN(CC(N)=O)Cc2cccc(n2)CN(CC(N)=O)CC1 [PC3AM^H] | 8.76 (3) | 4.10 (4) | – | – | 12.86 | – | – | – | – | 0.0107 M⁻¹ s⁻¹ | – |
| O=C(CN1CCN(CC(=O)N2CCCCC2)Cc2cccc(n2)CN(CC(=O)N2CCCCC2)CC1)N1CCCCC1.[Mn+2] [[Mn(PC3AM^Pip)]^2+] | – | – | – | – | – | – | – | 25 | – | (4.64 ± 0.04) × 10^−3 M^−1s^−1 | – |

Continued, in another order:

| log K1H ([2]; ligand protonation constant) | log K2H ([2]; ligand protonation constant) | log K3H ([2]; ligand protonation constant) | log K4H ([2]; ligand protonation constant) | Σ log K2H [2] | log K5H ([2]; ligand protonation constant) | log K6H ([2]; ligand protonation constant) | t1/2 0.1 M HCl ([1]; half-life of dissociation calculated for 0.1 M H+) [min] | SMILES | k1 (proton-assisted dissociation) ([1]; stopped-flow in highly acidic condition, proton-assisted dissociation of the [Mn(HL)] complex) | k1 (proton-assisted dissociation) [1] | k1 (proton-assisted dissociation) ([1]; ligand exchange reaction with trans-CDTA^4− or DTPA^5− in the pH range 8-9.5) [M⁻¹ s⁻¹] |
| --- | --- | --- | --- | --- | --- | --- | --- | --- | --- | --- | --- |
| 9.97 (3) | 6.73 (5) | 3.22 (6) | 1.40 (9) | 16.70 | – | – | – | O=C(O)CN1CCN(CC(=O)O)Cc2cccc(n2)CN(CC(=O)O)CC1 [PCTA] | 0.112 M⁻¹ s⁻¹ and 0.109 M⁻¹ s⁻¹ | – | – |
| 12.55 (2) | 11.37 (1) | 8.57 (2) | 7.02(2) | 23.92 | 5.36 (2) | 1.84 (2) | – | O=P(O)(O)CN1CCNCCN(CP(=O)(O)O)CCN(CP(=O)(O)O)CC1 [DO3P] | – | – | 240000 |
| 10.07 (5) | 8.93 (6) | 4.43 (9) | 4.11 (7) | 19.00 | 1.88 (7) | – | – | O=C(O)CN1CCNCCN(CC(=O)O)CCN(CC(=O)O)CC1 [DO3A] | – | 0.45 M⁻¹ s⁻¹ | – |
